Laboratory results taken from patent publication US20140123342A1, “Regulation of Stomatal Apertures by Apyrases and Extracellular Nucleotides” (BOARD OF REGENTS, THE UNIVERSITY OF TEXAS SYSTEM, priority 2011, published 2014).

Columns and labels:
[1] = test system: guard cells of x-luc1 and x-luc9 ecto-luciferase lines; assay: Ecto-luciferase luminescence imaging of extracellular ATP in epidermal peels; format: cell-based, Arabidopsis thaliana; details: 10 μM
From the text: Ecto-luciferase Construct and Plant Transformation: The nucleotide sequence for the 24 amino acid, cleavable signal peptide from the Brassica pollen coat protein, S-locus cysteine-rich protein (SCR13; AF195626) was used to target luciferase for secretion (Schopfer et al., 1999). The signal peptide was incorporated at the N-terminus of the luciferase gene by PCR and the SCR13 signal peptide modified luciferase PCR product was then ligated into the binary vector pLBJ21. This construct was then transformed into Agrobacterium tumefaciens strain GV3101 (pMP90) and then transformed into Arabidopsis plants (Col-0) using the floral dipping method (Clough and Bent, 1998). Transgenic plants were selected by planting on solidified Murashige and Skoog (MS) medium (4.3 g/L Murashige and Skoog salts (Sigma), 0.5% (w/v) MES, and 1.0% (w/v) agar, raised to pH 5.7 with 5 M KOH) containing 50 μg/mL kanamycin. Segregation of T3 generation on kanamycin plates was analysed in order to obtain homozygous lines. Plants showing kanamycin resistance were checked for luciferase activity by growing transgenic plants in MS medium for 10 days and then transferring the whole seedlings into test tubes. Luminescence measurements were performed by placing the test tubes in the light-tight housing of the luminometer reader (Dynatech). Experimental solutions with luciferin substrate with and without 1 mM ATP were injected by an automatic injector, and after 3 seconds counting started at 0.2 second time intervals.
Imaging of Luminescence in Ecto-luciferase Plants: Ecto-luciferase seeds were surface-sterilized, stratified in the dark in 4° C. for at least three days and then planted directly on a cellophane membrane placed upon solidified MS with 1.0% (w/v) agar. Planted plates were placed upright in a culture chamber and grown at 23° C. under 24-h fluorescent light for 7 days. Plates were then reoriented so that the solidified MS medium was at the bottom of the plate and the seedling was able to grow up into the empty space of the petri dish. Seedlings were then allowed to mature for up to 4 weeks under identical temperature and light settings. For “dark” studies petri dishes of 3-4 week old plants were placed in a dark chamber for 24 hours prior to use in the studies.
Mature basal leaves were excised from x-luc1 and x-luc9 plants 3-4 weeks old. Peels were taken and then immediately floated with the abaxial side up in 40 μL, of Arabidopsis leaf buffer on a microscope slide and the chemical being tested in either light or dark conditions depending on the experimental setup. The placing of the peels within their respective solution was considered time zero. Peels were treated for a minimum of 5 minutes before luciferin and flash buffer were added to the solution. […] Luminescence was integrated over 120 seconds, High Gain, Read Out set to slow, using 4×4 pixel binning with Cosmic Suppression on, Background Correction off, and Flatfield Correction off with the filter set to Photo.
All luminescence analysis was conducted using the indiGO Analysis Software (version 2.0.0.26). All images consisted of a photographic image in grayscale with an overlaid luminescence image in pseudo color. […]

[2] = test system: stomata of nia1nia2 mutant leaves; assay: Stomatal closing studies with whole leaves of nia1nia2 mutant; format: cell-based, Arabidopsis thaliana; details: 10 μM
Method: Stomatal Aperture Studies: Arabidopsis thaliana ecotypes Columbia (Col-0) and Wassilewskija (WS) were used as wild types in this study. Col-0, nia1nia2, atrbohD/F, R2-4A and WS plants were all grown on autoclaved Metro-Mix 200 soil at 22° C. under continuous light. The mutant seeds nia1nia2 nia2-5; CS 2356; Col-0 background) were obtained from Dr. N. M. Crawford (University of California at San Diego) and the mutant seeds atrbohD/F (Col-0 background) were obtained from Dr. J. M. Kwak (University of Maryland). The RNAi mutant apyrase line (R2-4A) is in WS background, so WS ecotype was used as the control wild type for these studies. […]
After treatment, photos of stomata were taken using a light microscope at 20×. Stomatal aperture width was measured using the image processing software ImageJ. Typically, photos were taken of 70 to 90 stomata per treatment of which only 50 stomata were measured for each treatment. For each treatment the ratio of closed stomata (width of 0) to open stomata was determined for all stomata imaged and this ratio was maintained in the 50 stomata that were measured for each treatment. Data shown uses apertures determined as width/length, however data in all studies also obtained as width only and generally width/length and width only data are in agreement with each other. […]

## CC1=CC(=O)CC(C)(C)[C@@]1(O)/C=C/C(C)=C\C(=O)O [ABA, abscisic acid]
[1]; 5 min, x-luc9 peels, open stomata, light
  ecto-luciferase luminescence in the location of stomata, average: 3.57 cps
[1]; after 15 min of continuous exposure
  ecto-luciferase luminescence after return to control levels: about 0.80 cps
[2]
  effect on stomatal aperture: no effect on stomatal aperture
